Where a name gives a salt, the structure may show the parent alone.

For one experiment, the system named is carrageenin-induced rat foot edema. As to the kind of experiment: carrageenin-induced rat foot edema test. In kind it is in vivo, rat (male albino). The settings on record: 33 mg/kg, p.o., 3 hours after carrageenin, vs non-drug treated control. The protocol:
The activity of the compounds of the present invention as anti-inflammatoryagents may be determined by pharmacological tests, for example the standard carrageenin-induced rat foot edema test using the general procedure described by C. A. Winter et. al., see Proceedings of the Society of Experimental Biology in Medicine, Volume 111, page 544 (1962). In this test, anti-inflammatory activity is determined as the percent inhibition of edema formation in the hind paw of male albino rats (generally weighing about 150 to 190 grams) in response to a sub-plantar injection of carrageenin. The carrageenin is injected as a 1% aqueous suspension 1 hour after oral administration of the drug, which is normally given in the form of an aqueous solution or suspension. Edema formation is then assessed 3 hours after the carrageenin injection by comparing the initial volume of the injected paw and the volume after a 3 hour period. The increase in volume 3 hours after carrageenin injection constitutes the individual response. Compounds are considered active if the response between the drug-treated animals (6 rats per group) and the control group, i.e. the animals receiving the vehicle alone, is found to be significant on comparison with the results afforded by standard compounds like acetylsalicyclic acid at 100 mg/kg or phenylbutazone at 33 mg/kg, both by the oral route of administration.
The anti-inflammatory activity of aminothiazoles of this invention was determined using the standard carrageenin-induced rat foot edema test, according to the procedure essentially as described by C. A. Winter etl. al., and reported in the Proceedings of the Society for Experimental Biology and Medicine, Vol. 111, p. 544 (1962). The compounds were administered orally in the form of their previously reported hydrohalide salts at a dose level of 33 mg/kg. The results obtained in this manner are presented in the table below in terms of the percent inhibition of edema formation afforded by each test compound as compared to the non-drug treated control (i.e., aqueous solution with no compound): […]
For orientation: Carrageenan injected into the paw causes an acute inflammation.
`COc1ccc(CCNc2nc(-c3ccc(F)cc3)cs2)cc1` [2-(p-methoxyphenethylamino)-4-(p-fluorophenyl)-thiazole]: the “% Inhibition of edema” value worked out at 29%.
For `Fc1ccc(-c2csc(NCc3cccs3)n2)cc1` [2-thenyl, 4-fluorophenyl, hydrogen, HBr, 2-thenylamino-4-(p-fluorophenyl)-thiazole], the “% Inhibition of edema” value came to 49%.
For `Br.c1ccc(CCNc2nc(-c3ccccc3)cs2)cc1` [Example 2, 2-phenethylamino-4-phenyl-thiazole hydrobromide], the “% Inhibition of edema” value was found to be 47%.

The next experiment relates to murine thymus cells. As to the kind of experiment: in vitro stimulation of lymphocyte proliferation of murine thymus cells cultured in the presence of Concanavalin A (lymphocyte stimulation assay, LSA). The settings on record: Con A-stimulated thymus cells, 48 h at 37° C., highest 3H-thymidine cpm of eight concentrations 0.02 to 50 μg/ml, hydrohalide salts. In kind it is cell-based, mouse (male C57B1/6). The source says:
The immune regulant activity of the compounds of the present invention may be determined by such pharmacological tests as the stimulation in vitro of lymphocyte proliferation of murine thymus cells cultured in the presence of Concanavalin A (Con A), employing the general evaluation procedure of V. J. Merluzzi et. al., see Journal of Clinical and Experimental Immunology, Volume 22, page 486 (1975).
The immune regulant activity of the aminothiazoles described in Examples 2, 3, 4, 6, 7, 8, 10 and 11 was evaluated by determining their ability to stimulate, in vitro the lymphocyte proliferation of murine thymus cells cultured in the presence of Concanavalin A (Con A) by employing the procedure of V. J. Merluzzi et. al., as essentially described in the Journal of Clinical and Experimental Immunology, Vol. 22, p. 486 (1975). The cells were derived from male C57B1/6 mice of from 6-8 weeks age, purchased from the Jackson Laboratories of Bar Harbor, Maine and the Con A was obtained from Sigma Chemicals of St. Louis, Mo. Each cell culture (consisting of 0.10 ml thymus cells stock solution, 0.05 ml of Con A stock solution and 0.05 ml of drug solution) was performed in quadruplicate and cellular proliferation was measured, after 48 hours of incubation at 37° C., by pulsing each culture with ^3 H-thymidine (0.01 ml of specific activity 1.9 C/mM, obtained from Schwarz-Mann, Inc. of Orangeburg, N.Y.) and then determining the incorporation of ^3 H-thymidine into cellular deoxyribonucleic acid (DNA) by an assessment of radioactivity using a liquid scintillation counter. […] These quadruplicate determinations are employed at eight different concentrations of drugs in the range 0.02 to 50 μg/ml. The highest cpm value obtained is employed in the scoring system.
For the compound `Br.c1ccc(CCNc2nc(-c3ccccc3)cs2)cc1` [Example 2, 2-phenethylamino-4-phenyl-thiazole hydrobromide], the LSA activity entry is “+++ (those having an activity (27,000±1,000 cpm) greater than levamisole were scored as +++)”.
As to `Br.Cc1sc(NCCc2ccccc2)nc1-c1ccccc1` [Example 3, 2-phenethylamino-4-phenyl-5-methylthiazole hydrobromide], the LSA activity entry is given as “+++ (those having an activity (27,000±1,000 cpm) greater than levamisole were scored as +++)”.
As to `c1ccc(-c2csc(NCc3cccs3)n2)cc1` [Example 6, 2-thenylamino-4-phenyl-thiazole hydrobromide], the LSA activity result is “+++ (those having an activity (27,000±1,000 cpm) greater than levamisole were scored as +++)”.
On the same count and under the same terms, the entry for `Fc1ccc(-c2csc(NCc3cccs3)n2)cc1` [Example 7, 2-thenylamino-4(p-fluorophenyl)-thiazole hydrochloride] is “+++ (those having an activity (27,000±1,000 cpm) greater than levamisole were scored as +++)”.
On to `Br.Cc1sc(NCc2ccco2)nc1-c1ccccc1` [Example 10, 2-furfurylamino-5-methyl-4-phenyl-thiazole hydrobromide], for which the LSA activity result was “+++ (those having an activity (27,000±1,000 cpm) greater than levamisole were scored as +++)”.

Still in this experiment, the particulars now being: levamisole standard; drug level with maximum activity, Con A-stimulated thymus cells, 48 h at 37° C.
As to `c1ccc([C@H]2CN3CCSC3=N2)cc1` [levamisole, reference compound], the “average counts per minute of 3H-thymidine incorporated (LSA activity)” value is 22,000±900 cpm.

The values are drawn from patent US4307106A, “Aminothiazoles” (Pfizer Inc., priority 1979, dated 1981).
